Source: the NIST ThermoML archive (doi:10.1016/j.fluid.2016.07.004)
± gives the expanded uncertainty stated by the source.

Conditions: Liquid, X-ray view cell

c1ccccc1 [benzene]
Conditions | vapor or sublimation pressure [kPa]
378.35 K | 205 ± 17
401.25 K | 366 ± 30
421.85 K | 572 ± 47
437.45 K | 778 ± 63
460.35 K | 1173 ± 95
480.45 K | 1622 ± 130
500.15 K | 2183 ± 180
520.05 K | 2877 ± 230
